# Test results: ChEMBL document CHEMBL1201861, “Genomics of Drug Sensitity in Cancer screening data, Wellcome Trust Sanger Institute”
# Key:
# Assay in all cases: cells
# Ca9-22 = format: functional, cell-based, Homo sapiens;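 also: growth inhibition of Ca9-22 cells, read out with a cell viability assay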
# Description: SANGER: Inhibition of human Ca9-22 cell growth in a cell viability assay.
# G-402 = format: functional, cell-based, Homo sapiens
# Description: SANGER: Inhibition of human G-402 cell growth in a cell viability assay.
# GP5d = format: functional, cell-based, Homo sapiens;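 also: growth inhibition of human GP5d cells, read out with a cell viability assay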
# Description: SANGER: Inhibition of human GP5d cell growth in a cell viability assay.
# HCC1937 = format: functional, cell-based, Homo sapiens;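 also: growth inhibition measured with a cell viability read-out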
# Description: SANGER: Inhibition of human HCC1937 cell growth in a cell viability assay.
# HT-1080 = format: functional, cell-based, Homo sapiens
# Description: SANGER: Inhibition of human HT-1080 cell growth in a cell viability assay.
# HT1197 = format: functional, cell-based, Homo sapiens, HT-1197
# Description: SANGER: Inhibition of human HT-1197 cell growth in a cell viability assay.
# HT-1376 = format: functional, cell-based, Homo sapiens
# Description: SANGER: Inhibition of human HT-1376 cell growth in a cell viability assay.
# Huh-7 = format: functional, cell-based, Homo sapiens;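 also: HuH-7 cell growth inhibition, read out with a cell viability assay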
# Description: SANGER: Inhibition of human HuH-7 cell growth in a cell viability assay.
# HuO9 = format: functional, cell-based, Homo sapiens;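 also: growth inhibition of HuO9 cells, read out with a cell viability assay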
# Description: SANGER: Inhibition of human HuO9 cell growth in a cell viability assay.
# IGR-1 = format: functional, cell-based, Homo sapiens;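 also: growth inhibition of human IGR-1 cells, read out with a cell viability assay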
# Description: SANGER: Inhibition of human IGR-1 cell growth in a cell viability assay.
# KP-N-YN = format: functional, cell-based, Homo sapiens;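 also: growth inhibition of KP-N-YN cells, read out with a cell viability assay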
# Description: SANGER: Inhibition of human KP-N-YN cell growth in a cell viability assay.
# KYSE-70 cell line = format: functional, cell-based, Homo sapiens;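 also: cell viability assay read-out, with IC50 expressing suppression of KYSE-70 cell growth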
# Description: SANGER: Inhibition of human KYSE-70 cell growth in a cell viability assay.
# LN-405 = format: functional, cell-based, Homo sapiens
# Description: SANGER: Inhibition of human LN-405 cell growth in a cell viability assay.
# LU-99A = format: functional, cell-based, Homo sapiens;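 also: growth inhibition of LU-99A cells, read out with a cell viability assay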
# Description: SANGER: Inhibition of human LU-99A cell growth in a cell viability assay.
# MHH-ES-1 = format: functional, cell-based, Homo sapiens;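 also: cell growth inhibition measured by a cell viability assay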
# Description: SANGER: Inhibition of human MHH-ES-1 cell growth in a cell viability assay.
# MOLT-13 = format: functional, cell-based, Homo sapiens;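 also: IC50 for suppression of MOLT-13 cell growth, read out with a cell viability assay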
# Description: SANGER: Inhibition of human MOLT-13 cell growth in a cell viability assay.
# NCI-H1437 = format: functional, cell-based, Homo sapiens;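 also: growth inhibition of human NCI-H1437 cells, read out by a cell viability assay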
# Description: SANGER: Inhibition of human NCI-H1437 cell growth in a cell viability assay.
# NCI-H1573 = format: functional, cell-based, Homo sapiens;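 also: growth inhibition of NCI-H1573 cells, read out with a cell viability assay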
# Description: SANGER: Inhibition of human NCI-H1573 cell growth in a cell viability assay.
# NCI-H2228 = format: functional, cell-based, Homo sapiens;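 also: growth inhibition of human NCI-H2228 cells, read out by a cell viability assay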
# Description: SANGER: Inhibition of human NCI-H2228 cell growth in a cell viability assay.
# OVCAR-3 = format: functional, cell-based, Homo sapiens;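 also: growth inhibition of human OVCAR-3 cells, determined by a cell viability assay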
# Description: SANGER: Inhibition of human OVCAR-3 cell growth in a cell viability assay.
# SK-MEL-28 = format: functional, cell-based, Homo sapiens;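 also: growth inhibition of human SK-MEL-28 cells, read out with a cell viability assay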
# Description: SANGER: Inhibition of human SK-MEL-28 cell growth in a cell viability assay.
# SK-MEL3 = format: functional, cell-based, Homo sapiens, SK-MEL-3;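 also: growth inhibition of human SK-MEL-3 cells, read out with a cell viability assay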
# Description: SANGER: Inhibition of human SK-MEL-3 cell growth in a cell viability assay.
# SK-OV-3 = format: functional, cell-based, Homo sapiens;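 also: growth inhibition of SK-OV-3 human cells, read out with a cell viability assay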
# Description: SANGER: Inhibition of human SK-OV-3 cell growth in a cell viability assay.
# SN12C = format: functional, cell-based, Homo sapiens;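 also: growth inhibition of human SN12C cells, measured by a cell viability assay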
# Description: SANGER: Inhibition of human SN12C cell growth in a cell viability assay.
# SW1990 = format: functional, cell-based, Homo sapiens;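 also: cell growth inhibition determined with a viability assay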
# Description: SANGER: Inhibition of human SW1990 cell growth in a cell viability assay.
# SW756 = format: functional, cell-based, Homo sapiens;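 also: growth inhibition of human SW756 cells, read out with a cell viability assay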
# Description: SANGER: Inhibition of human SW756 cell growth in a cell viability assay.
# T98G = format: functional, cell-based, Homo sapiens;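 also: growth inhibition of T98G cells, read out by a cell viability assay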
# Description: SANGER: Inhibition of human T98G cell growth in a cell viability assay.
# 5637 = format: functional, cell-based, Homo sapiens
# Description: SANGER: Inhibition of human 5637 cell growth in a cell viability assay.
# 639-V = format: functional, cell-based, Homo sapiens;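 also: growth inhibition of 639-V cells, read out with a cell viability assay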
# Description: SANGER: Inhibition of human 639-V cell growth in a cell viability assay.
# A 172 = format: functional, cell-based, Homo sapiens;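 also: growth inhibition of A172 cells, measured with a cell viability readout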
# Description: SANGER: Inhibition of human A172 cell growth in a cell viability assay.
# BXPC-3 = format: functional, cell-based, Homo sapiens;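 also: growth inhibition of human BxPC-3 cells, read out by a cell viability assay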
# Description: SANGER: Inhibition of human BxPC-3 cell growth in a cell viability assay.
# C-33-A = format: functional, cell-based, Homo sapiens;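 also: cell viability assay measuring growth inhibition of C-33-A cells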
# Description: SANGER: Inhibition of human C-33-A cell growth in a cell viability assay.
# CAKI-1 = format: functional, cell-based, Homo sapiens;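 also: growth inhibition of CAKI-1 cells, measured by a cell viability assay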
# Description: SANGER: Inhibition of human CAKI-1 cell growth in a cell viability assay.
# UMUC3 = format: functional, cell-based, Homo sapiens;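 also: growth inhibition of human UM-UC-3 cells, read out with a cell viability assay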
# Description: SANGER: Inhibition of human UM-UC-3 cell growth in a cell viability assay.
# YH-13 = format: functional, cell-based, Homo sapiens;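 also: cell viability readout of growth suppression in the human YH-13 cell line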
# Description: SANGER: Inhibition of human YH-13 cell growth in a cell viability assay.
compound,measurement,setting,value
Cc1cn(-c2cc(NC(=O)c3ccc(C)c(Nc4nccc(-c5cccnc5)n4)c3)cc(C(F)(F)F)c2)cn1 [NILOTINIB],IC50,"Ca9-22; Homo sapiens, Ca9-22",> 2 µM
same,IC50,"G-402; Homo sapiens, G-402",> 2 µM
same,IC50,"GP5d; Homo sapiens, GP5d",> 2 µM
same,IC50,"HCC1937; Homo sapiens, HCC1937",> 2 µM
same,IC50,"HT-1080; Homo sapiens, HT-1080",> 2 µM
same,IC50,"HT1197; Homo sapiens, HT1197",> 2 µM
same,IC50,"HT-1376; Homo sapiens, HT-1376",> 2 µM
same,IC50,"Huh-7; Homo sapiens, Huh-7",> 2 µM
same,IC50,"HuO9; Homo sapiens, HuO9",> 2 µM
same,IC50,"IGR-1; Homo sapiens, IGR-1",> 2 µM
same,IC50,"KP-N-YN; Homo sapiens, KP-N-YN",> 2 µM
same,IC50,"KYSE-70 cell line; Homo sapiens, KYSE-70",> 2 µM
same,IC50,"LN-405; Homo sapiens, LN-405",> 2 µM
same,IC50,"LU-99A; Homo sapiens, LU-99A",> 2 µM
same,IC50,"MHH-ES-1; Homo sapiens, MHH-ES-1",> 2 µM
same,IC50,"MOLT-13; Homo sapiens, MOLT-13",> 2 µM
same,IC50,"NCI-H1437; Homo sapiens, NCI-H1437",> 2 µM
same,IC50,"NCI-H1573; Homo sapiens, NCI-H1573",> 2 µM
same,IC50,"NCI-H2228; Homo sapiens, NCI-H2228",> 2 µM
same,IC50,"OVCAR-3; Homo sapiens, OVCAR-3",> 2 µM
same,IC50,"SK-MEL-28; Homo sapiens, SK-MEL-28",> 2 µM
same,IC50,"SK-MEL3; Homo sapiens, SK-MEL3",> 2 µM
same,IC50,"SK-OV-3; Homo sapiens, SK-OV-3",> 2 µM
same,IC50,"SN12C; Homo sapiens, SN12C",> 2 µM
same,IC50,"SW1990; Homo sapiens, SW1990",> 2 µM
same,IC50,"SW756; Homo sapiens, SW756",> 2 µM
same,IC50,"T98G; Homo sapiens, T98G",> 2 µM
same,IC50,5637; Homo sapiens,> 2 µM
same,IC50,"639-V; Homo sapiens, 639-V",> 2 µM
same,IC50,"A 172; Homo sapiens, A 172",> 2 µM
same,IC50,"BXPC-3; Homo sapiens, BXPC-3",> 2 µM
same,IC50,"C-33-A; Homo sapiens, C-33-A",> 2 µM
same,IC50,"CAKI-1; Homo sapiens, CAKI-1",> 2 µM
same,IC50,"UMUC3; Homo sapiens, UMUC3",> 2 µM
same,IC50,"YH-13; Homo sapiens, YH-13",> 2 µM
CC(C)CCN1c2nc(Nc3cc(F)c(O)c(F)c3)ncc2N(C)C(=O)C1C (stereo not given),IC50,"Ca9-22; Homo sapiens, Ca9-22",2.66 µM
same,IC50,"G-402; Homo sapiens, G-402",> 5 µM
same,IC50,"GP5d; Homo sapiens, GP5d",> 5 µM
same,IC50,"HCC1937; Homo sapiens, HCC1937",> 5 µM
same,IC50,"HT-1080; Homo sapiens, HT-1080",> 5 µM
same,IC50,"HT1197; Homo sapiens, HT1197",> 5 µM
same,IC50,"HT-1376; Homo sapiens, HT-1376",4.23 µM
same,IC50,"Huh-7; Homo sapiens, Huh-7",> 5 µM
same,IC50,"HuO9; Homo sapiens, HuO9",2.37 µM
same,IC50,"IGR-1; Homo sapiens, IGR-1",4.1 µM
same,IC50,"KP-N-YN; Homo sapiens, KP-N-YN",> 5 µM
same,IC50,"KYSE-70 cell line; Homo sapiens, KYSE-70",> 5 µM
same,IC50,"LN-405; Homo sapiens, LN-405",> 5 µM
same,IC50,"LU-99A; Homo sapiens, LU-99A",> 5 µM
same,IC50,"MHH-ES-1; Homo sapiens, MHH-ES-1",4.83 µM
same,IC50,"MOLT-13; Homo sapiens, MOLT-13",3.97 µM
same,IC50,"NCI-H1437; Homo sapiens, NCI-H1437",4.93 µM
same,IC50,"NCI-H1573; Homo sapiens, NCI-H1573",> 5 µM
same,IC50,"NCI-H2228; Homo sapiens, NCI-H2228",> 5 µM
same,IC50,"OVCAR-3; Homo sapiens, OVCAR-3",> 5 µM
same,IC50,"SK-MEL-28; Homo sapiens, SK-MEL-28",> 5 µM
same,IC50,"SK-MEL3; Homo sapiens, SK-MEL3",> 5 µM
same,IC50,"SK-OV-3; Homo sapiens, SK-OV-3",> 5 µM
same,IC50,"SN12C; Homo sapiens, SN12C",> 5 µM
same,IC50,"SW1990; Homo sapiens, SW1990",> 5 µM
same,IC50,"SW756; Homo sapiens, SW756",> 5 µM
same,IC50,"T98G; Homo sapiens, T98G",3.28 µM
same,IC50,5637; Homo sapiens,4.61 µM
same,IC50,"639-V; Homo sapiens, 639-V",2.72 µM
same,IC50,"A 172; Homo sapiens, A 172",0.517 µM
same,IC50,"BXPC-3; Homo sapiens, BXPC-3",> 5 µM
same,IC50,"C-33-A; Homo sapiens, C-33-A",> 5 µM
same,IC50,"CAKI-1; Homo sapiens, CAKI-1",> 5 µM
same,IC50,"UMUC3; Homo sapiens, UMUC3",> 5 µM
same,IC50,"YH-13; Homo sapiens, YH-13",> 5 µM
CC1(C)CNc2cc(NC(=O)c3cccnc3NCc3ccncc3)ccc21 [MOTESANIB],IC50,"Ca9-22; Homo sapiens, Ca9-22",> 2 µM
same,IC50,"G-402; Homo sapiens, G-402",1.02 µM
same,IC50,"GP5d; Homo sapiens, GP5d",> 2 µM
same,IC50,"HCC1937; Homo sapiens, HCC1937",> 2 µM
same,IC50,"HT-1080; Homo sapiens, HT-1080",> 2 µM
same,IC50,"HT1197; Homo sapiens, HT1197",> 2 µM
same,IC50,"HT-1376; Homo sapiens, HT-1376",> 2 µM
same,IC50,"Huh-7; Homo sapiens, Huh-7",> 2 µM
same,IC50,"HuO9; Homo sapiens, HuO9",> 2 µM
same,IC50,"IGR-1; Homo sapiens, IGR-1",> 2 µM
same,IC50,"KP-N-YN; Homo sapiens, KP-N-YN",> 2 µM
same,IC50,"KYSE-70 cell line; Homo sapiens, KYSE-70",> 2 µM
same,IC50,"LN-405; Homo sapiens, LN-405",> 2 µM
same,IC50,"LU-99A; Homo sapiens, LU-99A",> 2 µM
same,IC50,"MHH-ES-1; Homo sapiens, MHH-ES-1",> 2 µM
same,IC50,"MOLT-13; Homo sapiens, MOLT-13",> 2 µM
same,IC50,"NCI-H1437; Homo sapiens, NCI-H1437",> 2 µM
same,IC50,"NCI-H1573; Homo sapiens, NCI-H1573",> 2 µM
same,IC50,"NCI-H2228; Homo sapiens, NCI-H2228",> 2 µM
same,IC50,"OVCAR-3; Homo sapiens, OVCAR-3",> 2 µM
same,IC50,"SK-MEL-28; Homo sapiens, SK-MEL-28",> 2 µM
same,IC50,"SK-MEL3; Homo sapiens, SK-MEL3",> 2 µM
same,IC50,"SK-OV-3; Homo sapiens, SK-OV-3",> 2 µM
same,IC50,"SN12C; Homo sapiens, SN12C",> 2 µM
same,IC50,"SW1990; Homo sapiens, SW1990",> 2 µM
same,IC50,"SW756; Homo sapiens, SW756",> 2 µM
same,IC50,"T98G; Homo sapiens, T98G",> 2 µM
same,IC50,5637; Homo sapiens,> 2 µM
same,IC50,"639-V; Homo sapiens, 639-V",> 2 µM
same,IC50,"A 172; Homo sapiens, A 172",> 2 µM
same,IC50,"BXPC-3; Homo sapiens, BXPC-3",> 2 µM
same,IC50,"C-33-A; Homo sapiens, C-33-A",> 2 µM
same,IC50,"CAKI-1; Homo sapiens, CAKI-1",> 2 µM
same,IC50,"UMUC3; Homo sapiens, UMUC3",> 2 µM
same,IC50,"YH-13; Homo sapiens, YH-13",> 2 µM
CISPLATIN,IC50,Ca9-22; ca9-22,10.4 µM
same,IC50,G-402; g-402,7.11 µM
same,IC50,GP5d; gp5d,24.2 µM
same,IC50,HCC1937; hcc1937,137 µM
same,IC50,HT-1080; ht-1080,23.9 µM
same,IC50,HT1197; ht-1197,13.3 µM
same,IC50,HT-1376; ht-1376,98.9 µM
same,IC50,Huh-7; huh-7,40.9 µM
same,IC50,HuO9; huo9,38.7 µM
same,IC50,IGR-1; igr-1,575 µM
same,IC50,KP-N-YN; kp-n-yn,581 µM
same,IC50,KYSE-70 cell line; kyse-70,48.7 µM
same,IC50,LN-405; ln-405,15.5 µM
same,IC50,LU-99A; lu-99a,4.29 µM
same,IC50,MHH-ES-1; mhh-es-1,55 µM
same,IC50,MOLT-13; molt-13,381 µM
same,IC50,NCI-H1437; nci-h1437,84.4 µM
same,IC50,NCI-H1573; nci-h1573,112 µM
same,IC50,NCI-H2228; nci-h2228,8.25 µM
same,IC50,OVCAR-3; ovcar-3,696 µM
same,IC50,SK-MEL-28; sk-mel-28,22.2 µM
same,IC50,SK-MEL3; sk-mel-3,684 µM
same,IC50,SK-OV-3; sk-ov-3,614 µM
same,IC50,SN12C; sn12c,17.1 µM
same,IC50,SW1990; sw1990,9.71 µM
same,IC50,SW756; sw756,9.26 µM
same,IC50,T98G; t98g,141 µM
same,IC50,5637,4.52 µM
same,IC50,639-V; 639-v,5.89 µM
same,IC50,A 172; a 172,78.9 µM
same,IC50,BXPC-3; bxpc-3,22.3 µM
same,IC50,C-33-A; c-33-a,9.11 µM
same,IC50,CAKI-1; caki-1,7.27 µM
same,IC50,UMUC3; umuc3,3.93 µM
same,IC50,YH-13; yh-13,12.1 µM
